# Data published in ChEMBL document CHEMBL1240349, “Influence of tigecycline on expression of virulence factors in biofilm-associated cells of methicillin-resistant Staphylococcus aureus” (2010).
# What was measured:
# Type in all cases: functional
# Staphylococcus aureus [1] = assay: Decrease in capC expression in biofilm-associated cells of epidemic methicillin-resistant Staphylococcus aureus isolate 16-1 at 4 times MIC incubated for 1 hr by RT-PCR relative to untreated control
# Staphylococcus aureus [2] = assay: Increase in rpsE gene expression in biofilm-associated cells of epidemic methicillin-resistant Staphylococcus aureus isolate 16 at 4 times MIC incubated for 1 hr by whole genome microarray relative to untreated control
# Staphylococcus aureus [3] = assay: Increase in fnbB expression in biofilm-associated cells of epidemic methicillin-resistant Staphylococcus aureus isolate 15 at 4 times MIC incubated for 1 hr by RT-PCR relative to untreated control
# Staphylococcus aureus [4] = assay: Increase in ssaA expression in biofilm-associated cells of epidemic methicillin-resistant Staphylococcus aureus isolate 16-1 at 4 times MIC incubated for 1 hr by RT-PCR relative to untreated control
# Staphylococcus aureus [5] = assay: Decrease in dinR gene expression in biofilm-associated cells of epidemic methicillin-resistant Staphylococcus aureus isolate 16 at 4 times MIC incubated for 1 hr by whole genome microarray relative to untreated control
# Staphylococcus aureus [6] = assay: Decrease in tst gene expression in biofilm-associated cells of epidemic methicillin-resistant Staphylococcus aureus isolate 16 at 4 times MIC incubated for 1 hr by RT-PCR relative to untreated control
# Staphylococcus aureus [7] = assay: Increase in tcaR gene expression in biofilm-associated cells of epidemic methicillin-resistant Staphylococcus aureus isolate 16 at 4 times MIC incubated for 1 hr by whole genome microarray relative to untreated control
# Staphylococcus aureus [8] = assay: Increase in nusG gene expression in biofilm-associated cells of epidemic methicillin-resistant Staphylococcus aureus isolate 16 at 4 times MIC incubated for 1 hr by whole genome microarray relative to untreated control
# Staphylococcus aureus [9] = assay: Increase in mnhG gene expression in biofilm-associated cells of epidemic methicillin-resistant Staphylococcus aureus isolate 16 at 4 times MIC incubated for 1 hr by RT-PCR relative to untreated control
# Staphylococcus aureus [10] = assay: Decrease in capF gene expression in biofilm-associated cells of epidemic methicillin-resistant Staphylococcus aureus isolate 16 at 4 times MIC incubated for 1 hr by whole genome microarray relative to untreated control
# Staphylococcus aureus [11] = assay: Decrease in tst expression in biofilm-associated cells of epidemic methicillin-resistant Staphylococcus aureus isolate 16-1 at 4 times MIC incubated for 1 hr by RT-PCR relative to untreated control
# Staphylococcus aureus [12] = assay: Increase in infB gene expression in biofilm-associated cells of epidemic methicillin-resistant Staphylococcus aureus isolate 16 at 4 times MIC incubated for 1 hr by whole genome microarray relative to untreated control
# Staphylococcus aureus [13] = assay: Decrease in clpC gene expression in biofilm-associated cells of epidemic methicillin-resistant Staphylococcus aureus isolate 16 at 4 times MIC incubated for 1 hr by whole genome microarray relative to untreated control
# Staphylococcus aureus [14] = assay: Increase in cna expression in biofilm-associated cells of epidemic methicillin-resistant Staphylococcus aureus isolate 15 at 4 times MIC incubated for 1 hr by RT-PCR relative to untreated control
# Staphylococcus aureus [15] = assay: Increase in infA gene expression in biofilm-associated cells of epidemic methicillin-resistant Staphylococcus aureus isolate 16 at 4 times MIC incubated for 1 hr by whole genome microarray relative to untreated control
# Staphylococcus aureus [16] = assay: Increase in icaC expression in biofilm-associated cells of epidemic methicillin-resistant Staphylococcus aureus isolate 16-2 at 4 times MIC incubated for 1 hr by RT-PCR relative to untreated control
# Staphylococcus aureus [17] = assay: Decrease in cap8H gene expression in biofilm-associated cells of epidemic methicillin-resistant Staphylococcus aureus isolate 16 at 4 times MIC incubated for 1 hr by whole genome microarray relative to untreated control
# Staphylococcus aureus [18] = assay: Decrease in capD gene expression in biofilm-associated cells of epidemic methicillin-resistant Staphylococcus aureus isolate 16 at 4 times MIC incubated for 1 hr by whole genome microarray relative to untreated control
# Staphylococcus aureus [19] = assay: Increase in fnbA gene expression in biofilm-associated cells of epidemic methicillin-resistant Staphylococcus aureus isolate 16 at 4 times MIC incubated for 1 hr by whole genome microarray relative to untreated control
# Staphylococcus aureus [20] = assay: Increase in rpoC gene expression in biofilm-associated cells of epidemic methicillin-resistant Staphylococcus aureus isolate 16 at 4 times MIC incubated for 1 hr by whole genome microarray relative to untreated control
# Staphylococcus aureus [21] = assay: Increase in rplJ gene expression in biofilm-associated cells of epidemic methicillin-resistant Staphylococcus aureus isolate 16 at 4 times MIC incubated for 1 hr by whole genome microarray relative to untreated control
# Staphylococcus aureus [22] = assay: Decrease in sasF gene expression in biofilm-associated cells of epidemic methicillin-resistant Staphylococcus aureus isolate 16 at 4 times MIC incubated for 1 hr by RT-PCR relative to untreated control
# Staphylococcus aureus [23] = assay: Increase in dltA gene expression in biofilm-associated cells of epidemic methicillin-resistant Staphylococcus aureus isolate 16 at 4 times MIC incubated for 1 hr by whole genome microarray relative to untreated control
# Staphylococcus aureus [24] = assay: Increase in rplC gene expression in biofilm-associated cells of epidemic methicillin-resistant Staphylococcus aureus isolate 16 at 4 times MIC incubated for 1 hr by whole genome microarray relative to untreated control
# Staphylococcus aureus [25] = assay: Increase in cspB gene expression in biofilm-associated cells of epidemic methicillin-resistant Staphylococcus aureus isolate 16 at 4 times MIC incubated for 1 hr by whole genome microarray relative to untreated control
# Staphylococcus aureus [26] = assay: Increase in clfB expression in biofilm-associated cells of epidemic methicillin-resistant Staphylococcus aureus isolate 16-1 at 4 times MIC incubated for 1 hr by RT-PCR relative to untreated control
# Staphylococcus aureus [27] = assay: Increase in mnhF gene expression in biofilm-associated cells of epidemic methicillin-resistant Staphylococcus aureus isolate 16 at 4 times MIC incubated for 1 hr by whole genome microarray relative to untreated control
# Staphylococcus aureus [28] = assay: Increase in saeR gene expression in biofilm-associated cells of epidemic methicillin-resistant Staphylococcus aureus isolate 16 at 4 times MIC incubated for 1 hr by whole genome microarray relative to untreated control
# Staphylococcus aureus [29] = assay: Decrease in clpB gene expression in biofilm-associated cells of epidemic methicillin-resistant Staphylococcus aureus isolate 16 at 4 times MIC incubated for 1 hr by whole genome microarray relative to untreated control
# Staphylococcus aureus [30] = assay: Decrease in sasF expression in biofilm-associated cells of epidemic methicillin-resistant Staphylococcus aureus isolate 16-1 at 4 times MIC incubated for 1 hr by RT-PCR relative to untreated control
# Staphylococcus aureus [31] = assay: Increase in dltC gene expression in biofilm-associated cells of epidemic methicillin-resistant Staphylococcus aureus isolate 16 at 4 times MIC incubated for 1 hr by whole genome microarray relative to untreated control
# Staphylococcus aureus [32] = assay: Decrease in tst gene expression in biofilm-associated cells of epidemic methicillin-resistant Staphylococcus aureus isolate 16 at 4 times MIC incubated for 1 hr by whole genome microarray relative to untreated control
# Staphylococcus aureus [33] = assay: Increase in mnhD gene expression in biofilm-associated cells of epidemic methicillin-resistant Staphylococcus aureus isolate 16 at 4 times MIC incubated for 1 hr by whole genome microarray relative to untreated control
# Staphylococcus aureus [34] = assay: Decrease in clpC gene expression in biofilm-associated cells of epidemic methicillin-resistant Staphylococcus aureus isolate 16 at 4 times MIC incubated for 1 hr by RT-PCR relative to untreated control
structure (smiles),measurement,setting,value
CN(C)c1cc(NC(=O)CNC(C)(C)C)c(O)c2c1C[C@H]1C[C@H]3[C@H](N(C)C)C(O)=C(C(N)=O)C(=O)[C@@]3(O)C(O)=C1C2=O [TIGECYCLINE],fold change (FC),Staphylococcus aureus [1],1.75
same,fold change (FC),Staphylococcus aureus [2],11.01
same,fold change (FC),Staphylococcus aureus [3],1.22
same,fold change (FC),Staphylococcus aureus [4],2.04
same,fold change (FC),Staphylococcus aureus [5],3.31
same,fold change (FC),Staphylococcus aureus [6],1.51
same,fold change (FC),Staphylococcus aureus [7],2.79
same,fold change (FC),Staphylococcus aureus [8],4.34
same,fold change (FC),Staphylococcus aureus [9],5.16
same,fold change (FC),Staphylococcus aureus [10],2.66
same,fold change (FC),Staphylococcus aureus [11],1.51
same,fold change (FC),Staphylococcus aureus [12],2.35
same,fold change (FC),Staphylococcus aureus [13],2.44
same,fold change (FC),Staphylococcus aureus [14],1.55
same,fold change (FC),Staphylococcus aureus [15],4.77
same,fold change (FC),Staphylococcus aureus [16],1.6
same,fold change (FC),Staphylococcus aureus [17],2.18
same,fold change (FC),Staphylococcus aureus [18],2.19
same,fold change (FC),Staphylococcus aureus [19],2.3
same,fold change (FC),Staphylococcus aureus [20],3.28
same,fold change (FC),Staphylococcus aureus [21],12.75
same,fold change (FC),Staphylococcus aureus [22],1.32
same,fold change (FC),Staphylococcus aureus [23],2.63
same,fold change (FC),Staphylococcus aureus [24],12.06
same,fold change (FC),Staphylococcus aureus [25],5.59
same,fold change (FC),Staphylococcus aureus [26],7.5
same,fold change (FC),Staphylococcus aureus [27],3.27
same,fold change (FC),Staphylococcus aureus [28],2.02
same,fold change (FC),Staphylococcus aureus [29],2.49
same,fold change (FC),Staphylococcus aureus [30],1.32
same,fold change (FC),Staphylococcus aureus [31],2.29
same,fold change (FC),Staphylococcus aureus [32],2.39
same,fold change (FC),Staphylococcus aureus [33],1.93
same,fold change (FC),Staphylococcus aureus [34],1.14
